Laboratory results published in patent publication US20180155344A1, “TRICYCLIC PIPERIDINE COMPOUNDS” (ACTELION PHARMACEUTICALS LTD, priority 2015, published 2018).
Counter-ions that a name gives are not always drawn.

Target: T1, human TPH1 (Homo sapiens, UniProt P17752)
T1 sequence (P17752 1-444): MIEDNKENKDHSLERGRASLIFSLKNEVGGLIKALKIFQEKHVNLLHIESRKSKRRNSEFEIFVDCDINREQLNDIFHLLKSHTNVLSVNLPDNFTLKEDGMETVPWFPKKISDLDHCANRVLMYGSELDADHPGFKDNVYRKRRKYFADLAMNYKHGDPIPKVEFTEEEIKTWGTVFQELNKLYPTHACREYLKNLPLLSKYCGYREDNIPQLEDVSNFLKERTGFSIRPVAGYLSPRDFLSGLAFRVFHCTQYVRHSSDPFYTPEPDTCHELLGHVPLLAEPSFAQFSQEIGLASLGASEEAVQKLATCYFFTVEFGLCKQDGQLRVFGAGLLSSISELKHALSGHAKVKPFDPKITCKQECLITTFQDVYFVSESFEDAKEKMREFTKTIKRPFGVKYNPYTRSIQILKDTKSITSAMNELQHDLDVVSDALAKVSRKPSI
Assay: biochemical
Procedure, shortened: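 Inhibition is derived from 5-hydroxy-L-tryptophan fluorescence (540 nm emission, 300 nm excitation) after perchloric acid stop, relative to DMSO vehicle. Recombinant full-length human enzyme (40-80 nM) reacts with 40 μM tryptophan plus 100 μM methyltetrahydropterin, pH 7.6 Tris/DTT/catalase, 15° C, 60 min.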

| Compound | IC50 [nM] |
| --- | --- |
| COC(=O)c1ccc(C2c3c(nc4ccccn34)CCN2C(=O)COc2ccc(C(=O)NC3CC3)nc2Cl)c(F)c1 (stereo not shown) [Example 1.15.2, methyl-4-(2-(2-((2-chloro-6-(cyclopropylcarbamoyl)pyridin-3-yl)oxy)acetyl)-1,2,3,4-tetrahydroimidazo[1,2-a:5,4-c′]dipyridin-1-yl)-3-fluorobenzoate] | 49 |
| COC(C)(C)c1ccc(C2c3c(nc4ccccn34)CCN2C(=O)COc2ccc(NS(C)(=O)=O)nc2Cl)c(F)c1 (stereo not shown) [Example 1.17.2, N-(6-chloro-5-(2-(1-(2-fluoro-4-(2-methoxypropan-2-yl)phenyl)-3,4-dihydroimidazo[1,2-a:5,4-c′]pyridin-2(1H)-yl)-2-oxoethoxy)pyridin-2-yl)methanesulfonamide] | 591 |
| COCc1ccc(C2c3c(nc4ccccn34)CCN2C(=O)COc2ccc(C(=O)NC3CC3)nc2Cl)c(F)c1 (stereo not shown) [Example 1.18.1, 6-chloro-N-cyclopropyl-5-(2-(1-(2-fluoro-4-(methoxymethyl)phenyl)-3,4-dihydroimidazo[1,2-a:5,4-c′]dipyridin-2(1H)-yl)-2-oxoethoxy)picolinamide] | 38 |
| COCc1ccc(C2c3c(nc4ccccn34)CCN2C(=O)COc2ccc(NS(C)(=O)=O)nc2Cl)c(F)c1 (stereo not shown) [Example 1.18.2, N-(6-chloro-5-(2-(1-(2-fluoro-4-(methoxymethyl)phenyl)-3,4-dihydroimidazo[1,2-a:5,4-c′]dipyridin-2(1H)-yl)-2-oxoethoxy)pyridin-2-yl)methanesulfonamide] | 40 |
| CS(=O)(=O)Nc1ccc(OCC(=O)N2CCc3nc4ccccn4c3C2c2ccc(C#N)cc2F)c(Cl)n1 (stereo not shown) [Example 1.20.1, N-(6-chloro-5-(2-(1-(4-cyano-2-fluorophenyl)-3,4-dihydroimidazo[1,2-a:5,4-c′]dipyridin-2(1H)-yl)-2-oxoethoxy)pyridin-2-yl)methanesulfonamide] | 98 |
| COCCOc1ccc(C2c3c(nc4ccccn34)CCN2C(=O)COc2ccc(C(=O)NC3CC3)nc2Cl)c(F)c1 (stereo not shown) [Example 1.21.1, 6-chloro-N-cyclopropyl-5-(2-(1-(2-fluoro-4-(2-methoxyethoxy)phenyl)-3,4-dihydroimidazo[1,2-a:5,4-c′]dipyridin-2(1H)-yl)-2-oxoethoxy)picolinamide] | 54 |
| COCCOc1ccc(C2c3c(nc4ccccn34)CCN2C(=O)COc2ccc(NS(C)(=O)=O)nc2Cl)c(F)c1 (stereo not shown) [Example 1.21.2, N-(6-chloro-5-(2-(1-(2-fluoro-4-(2-methoxyethoxy)phenyl)-3,4-dihydroimidazo[1,2-a:5,4-c′]dipyridin-2(1H)-yl)-2-oxoethoxy)pyridin-2-yl)methanesulfonamide] | 79 |
| CS(=O)(=O)Nc1ccc(OCC(=O)N2CCc3nc4ccccn4c3C2c2ccc(OCCO)cc2F)c(Cl)n1 (stereo not shown) [Example 1.22.2, N-(6-Chloro-5-(2-(1-(2-fluoro-4-(2-hydroxyethoxy)phenyl)-3,4-dihydroimidazo[1,2-a:5,4-c′]dipyridin-2(1H)-yl)-2-oxoethoxy)pyridin-2-yl)methanesulfonamide] | 38 |
| COc1ccc(C2c3c(nc4cc(Cl)ccn34)CCN2C(=O)COc2ccc3ccccc3c2)cc1OC (stereo not shown) [Example 2.1.1, 1-(7-chloro-1-(3,4-dimethoxyphenyl)-3,4-dihydroimidazo[1,2-a:5,4-c′]dipyridin-2(1H)-yl)-2-(naphthalen-2-yloxy)ethan-1-one hydrochloride] | 39 |
| COc1ccc(C2c3c(nc4cc(Cl)ccn34)CCN2C(=O)COc2ccc(CN3CCOCC3)cc2Cl)cc1OC (stereo not shown) [Example 2.1.2, 1-(7-chloro-1-(3,4-dimethoxyphenyl)-3,4-dihydroimidazo[1,2-a:5,4-c′]dipyridin-2(1H)-yl)-2-(2-chloro-4-(morpholinomethyl)phenoxy)ethan-1-one] | 66 |
| COc1ccc(C2c3c(nc4cc(Cl)ccn34)CCN2C(=O)COc2ccc([N+](=O)[O-])cc2Cl)cc1OC (stereo not shown) [Example 2.1.4, 1-(7-chloro-1-(3,4-dimethoxyphenyl)-3,4-dihydroimidazo[1,2-a:5,4-c′]dipyridin-2(1H)-yl)-2-(2-chloro-4-nitrophenoxy)ethan-1-one] | 390 |
| COc1ccc(C2c3c(nc4cc(Cl)ccn34)CCN2C(=O)COc2ccc(CN3CCOCC3)nc2Cl)cc1OC (stereo not shown) [Example 2.1.5, 1-(7-chloro-1-(3,4-dimethoxyphenyl)-3,4-dihydroimidazo[1,2-a:5,4-c′]dipyridin-2(1H)-yl)-2-((2-chloro-6-(morpholinomethyl)pyridin-3-yl)oxy)ethan-1-one] | 316 |
| O=C(COc1ccc(N2CCOCC2)cc1Cl)N1CCc2nc3cc(Cl)ccn3c2[C@H]1c1cccnc1F [Example 2.2.2, 1-((1R)-7-chloro-1-(2-fluoropyridin-3-yl)-3,10a-dihydroimidazo[1,2-a:5,4-c′]dipyridin-2(1H)-yl)-2-(2-chloro-4-morpholinophenoxy)ethan-1-one] | 124 |
| COc1ccc(C2c3c(nc4cc(Cl)ccn34)CCN2C(=O)COc2ccc(CN3CCOCC3)cc2Cl)c(F)c1 (stereo not shown) [Example 2.3.1, 1-(7-chloro-1-(2-fluoro-4-methoxyphenyl)-3,4-dihydroimidazo[1,2-a:5,4-c′]dipyridin-2(1H)-yl)-2-(2-chloro-4-(morpholinomethyl)phenoxy)ethan-1-one] | 8 |

Further compounds by falling IC50, results first:

| IC50 [nM] | Compound |
| --- | --- |
| 546 | CC(C)(O)c1ccc(C2c3c(nc4ccccn34)CCN2C(=O)COc2ccc(NS(C)(=O)=O)nc2Cl)c(F)c1 (stereo not shown) [Example 1.16.2, N-(6-chloro-5-(2-(1-(2-fluoro-4-(2-hydroxypropan-2-yl)phenyl)-3,4-dihydroimidazo[1,2-a:5,4-c′]dipyridin-2(1H)-yl)-2-oxoethoxy)pyridin-2-yl)methanesulfonamide] |
| 402 | COc1ccc(C2c3c(nc4cc(Cl)ccn34)CCN2C(=O)COc2ccc(CO)cc2Cl)cc1OC (stereo not shown) [Example 2.1.3, 1-(7-chloro-1-(3,4-dimethoxyphenyl)-3,4-dihydroimidazo[1,2-a:5,4-c′]dipyridin-2(1H)-yl)-2-(2-chloro-4-(hydroxymethyl)phenoxy)ethan-1-one] |
| 269 | O=C(COc1ccc(CN2CCOCC2)cc1Cl)N1CCc2nc3cc(Cl)ccn3c2C1c1cccnc1F (stereo not shown) [Example 2.2.1, 1-(7-chloro-1-(2-fluoropyridin-3-yl)-3,4-dihydroimidazo[1,2-a:5,4-c′]dipyridin-2(1H)-yl)-2-(2-chloro-4-(morpholinomethyl)phenoxy)ethan-1-one] |
| 244 | CC(C)(O)c1ccc(C2c3c(nc4ccccn34)CCN2C(=O)COc2ccc(C(=O)NC3CC3)nc2Cl)c(F)c1 (stereo not shown) [Example 1.16.1, 6-chloro-N-cyclopropyl-5-(2-(1-(2-fluoro-4-(2-hydroxypropan-2-yl)phenyl)-3,4-dihydroimidazo[1,2-a:5,4-c′]dipyridin-2(1H)-yl)-2-oxoethoxy)picolinamide] |
| 140 | COC(C)(C)c1ccc(C2c3c(nc4ccccn34)CCN2C(=O)COc2ccc(C(=O)NC3CC3)nc2Cl)c(F)c1 (stereo not shown) [Example 1.17.1, 6-chloro-N-cyclopropyl-5-(2-(1-(2-fluoro-4-(2-methoxypropan-2-yl)phenyl)-3,4-dihydroimidazo[1,2-a:5,4-c′]dipyridin-2(1H)-yl)-2-oxoethoxy)picolinamide] |
| 113 | CS(=O)(=O)Nc1ccc(OCC(=O)N2CCc3nc4ccccn4c3C2c2ccc(OC(F)(F)F)cc2F)c(Cl)n1 (stereo not shown) [Example 1.19.1, N-(6-chloro-5-(2-(1-(2-fluoro-4-(trifluoromethoxy)phenyl)-3,4-dihydroimidazo[1,2-a:5,4-c′]dipyridin-2(1H)-yl)-2-oxoethoxy)pyridin-2-yl)methanesulfonamide0.71] |
| 80 | O=C(NC1CC1)c1ccc(OCC(=O)N2CCc3nc4ccccn4c3C2c2ccc(OCCO)cc2F)c(Cl)n1 (stereo not shown) [Example 1.22.1, 6-chloro-N-cyclopropyl-5-(2-(1-(2-fluoro-4-(2-hydroxyethoxy)phenyl)-3,4-dihydroimidazo[1,2-a:5,4-c′]dipyridin-2(1H)-yl)-2-oxoethoxy)picolinamide] |
| 53 | COc1ccc(C2c3c(nc4cc(Cl)ccn34)CCN2C(=O)COc2ccc(Cl)cc2Cl)cc1OC (stereo not shown) [Example 2.1.6, 1-(7-chloro-1-(3,4-dimethoxyphenyl)-3,4-dihydroimidazo[1,2-a:5,4-c′]dipyridin-2(1H)-yl)-2-(2,4-dichlorophenoxy)ethan-1-one] |
| 34 | COc1ccc(C2c3c(nc4cc(Cl)ccn34)CCN2C(=O)COc2ccc(N3CCOCC3)cc2Cl)cc1OC (stereo not shown) [Example 2.1.7, 1-(7-chloro-1-(3,4-dimethoxyphenyl)-3,4-dihydroimidazo[1,2-a:5,4-c′]dipyridin-2(1H)-yl)-2-(2-chloro-4-morpholinophenoxy)ethan-1-one] |
| 31 | N#Cc1ccc(C2c3c(nc4ccccn34)CCN2C(=O)COc2ccc(C(=O)NC3CC3)nc2Cl)c(F)c1 (stereo not shown) [Example 1.20.2, 6-chloro-5-(2-(1-(4-cyano-2-fluorophenyl)-3,4-dihydroimidazo[1,2-a:5,4-c′]dipyridin-2(1H)-yl)-2-oxoethoxy)-N-cyclopropylpicolinamide] |
| 18 | O=C(NC1CC1)c1ccc(OCC(=O)N2CCc3nc4ccccn4c3C2c2ccc(OC(F)(F)F)cc2F)c(Cl)n1 (stereo not shown) [Example 1.19.2, 6-chloro-N-cyclopropyl-5-(2-(1-(2-fluoro-4-(trifluoromethoxy)phenyl)-3,4-dihydroimidazo[1,2-a:5,4-c′]dipyridin-2(1H)-yl)-2-oxoethoxy)picolinamide] |
